pIC50: −log10 of the molar value.
Assays:
[1] = system: Wistar rats; test: Five Choice Serial Reaction Time Task, vITI version, repeated administration; format: in vivo, Wistar rat; parameters: Latency (Correct) / Latency (Incorrect): unit not given here; conditions: for Latency (Correct) / Latency (Incorrect) / Magazine Head Entries / Omissions / Reward Latency / Trials Completed: vITI, mean ± SEM
Description: The behavioral tasks utilized were three versions of the rat Five Choice Serial Reaction Time Task (5C-SRTT), the standard version of the task (STD) with a fixed stimulus duration and a fixed intertrial interval, the variable stimulus duration (vSD) and the variable intertrial interval (vITI) version. The principal readout parameters in each task were the % Hit and the % correct choices (measures of sustained attention) and three measures of inhibitory response control (premature, perseverative, and timeout responses), although a number of additional outcome measures were obtained (see under Methods and Results below).
Twenty-four adult (approx. 10 months old) male Wistar rats (Envigo, Inc, Indianapolis, IN) were used in the study. […] Subjects were double housed in polycarbonate cages (45×30×18 cm) with corncob bedding in a vivarium of constant temperature (21-23° C.) and humidity (40-50%). […] All behavioral testing was performed during the light portion (9 a.m.-5 p.m.) of the light/dark cycle (Monday thru Friday). Animals were cared for in accordance with the Guide for the Care and Use of Laboratory Animals (U.S. National Institutes of Health) and the experimental protocols were approved by the Institutional Animal Care and Use Committee at Augusta University (Protocol #2010-0044).
The 5C-SRTT procedure (reviewed, Robbins, 2002. Psychopharmacology (Berl); 163(3-4):362-80) was conducted as we have described previously (Terry et al., 2014, Neurotoxicology and Teratology 44:18-29, 2014; Callahan et al., 2020, Neuropharmacology. August 15; 173:107994). […] Animals were trained in eight automated 5C-SRTT operant chambers (Med Associates, St. Albans, VT, USA), controlled by MedPC software (Med Associates). Briefly, each operant chamber was equipped with 5 apertures containing a photocell beam to detect nose pokes and a lamp (2.8 W) that could be illuminated randomly at varying durations. Food pellets (45 mg chow pellet, BioServ, Frenchtown, NJ, USA) were delivered automatically to a magazine, located on the opposite wall to the nose pokes, that was also equipped with a light that turned on to indicate that a pellet had been dispensed. The house-light remained on for the entire session unless an error or omission occurred. Training sessions began with the delivery of a food reward and retrieval triggered the first trial. […] Sessions ended when 40 minutes had lapsed or 100 trials had been completed.
For this study, subjects were re-trained 5 days per week until they re-established a stable performance criteria with a fixed (1.0 sec) stimulus duration and a fixed ITI (5 sec) of 70-75% accuracy, <20% omissions and completion of all 100 trials for 5 consecutive days. Upon meeting these performance criteria animals were trained for one additional week and two groups of subjects (N=12) were assembled and balanced according to their performance accuracy, specifically the % Hit evaluation, which takes into account correct responses as well as all incorrect responses including the number of omissions. […] The vSD version of the task increases the attentional load while the vITI increases impulsivity-like behavior. The following outcome measures and behavioral domains were assessed: % Hit and % correct=sustained attention; omissions=attention/motivation; premature responses=impulsivity; perseverative responses=compulsivity; timeout responses=cognitive inflexibility; magazine head entries=appetitive motivation and compulsivity-like behavior; response latencies=information processing speed and/or motivation. For the STD version of the task, the stimulus duration (SD) was fixed at 1.0 sec and the ITI was fixed at 5 sec. In the vSD version of the task the following stimulus durations were presented in a pseudorandom manner: 0.3, 0.6, and 0.9 sec. In the vITI version, 2.5, 5.0, and 10.0 sec ITIs were employed in a pseudorandom manner. […]

[2] = target: T1, CYP2C8 (Homo sapiens, UniProt P10632)
T1 sequence (P10632 1-490): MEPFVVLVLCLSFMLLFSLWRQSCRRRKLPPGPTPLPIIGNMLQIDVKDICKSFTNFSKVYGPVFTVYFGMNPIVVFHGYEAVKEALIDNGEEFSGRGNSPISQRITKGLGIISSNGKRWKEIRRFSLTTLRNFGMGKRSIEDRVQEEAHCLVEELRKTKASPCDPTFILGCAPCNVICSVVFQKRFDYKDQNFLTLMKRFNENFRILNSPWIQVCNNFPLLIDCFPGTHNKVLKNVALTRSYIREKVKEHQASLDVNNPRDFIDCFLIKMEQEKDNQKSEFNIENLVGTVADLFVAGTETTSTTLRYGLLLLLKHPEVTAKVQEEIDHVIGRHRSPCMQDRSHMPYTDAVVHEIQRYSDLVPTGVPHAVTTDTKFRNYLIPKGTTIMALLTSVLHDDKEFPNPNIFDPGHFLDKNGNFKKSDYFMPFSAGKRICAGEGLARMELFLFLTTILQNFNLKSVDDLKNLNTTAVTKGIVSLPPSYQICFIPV

[3] = repeated 0.1 and 0.3 mg/kg IP, 10 sec ITI
[4] = Group 1, 0.1 mg/kg, Drug Exp period
[5] = Group 1, 0.1 mg/kg, Post-Drug Exp (vehicle washout) period
[6] = Group 2, 0.3 mg/kg, Drug Exp period
[7] = Group 2, 0.3 mg/kg, Post-Drug Exp (vehicle washout) period

For `Clc1ccc(C2(OCC3OCCO3)c3ccccc3C3=NCCN32)cc1` (centres unmarked) [Compound I-19], which “% Hit” value ([1]; repeated 0.1 and 0.3 mg/kg IP) is on record?
The value was “modest decrease in accuracy that was limited to the 2.5 sec ITI”.

And the premature responses [1, 3]?
The premature responses was “reduced the number of premature responses compared to both the pre- and post-drug conditions at the 10 sec ITI”.

And the timeout responses [1, 3]?
Its timeout responses is “reduced the number of timeout responses compared to both the pre- and post-drug conditions at the 10 sec ITI”.

What about the “Latency (Correct)” value [1, 4] of the same compound?
The value was 0.99.

And the “Latency (Incorrect)” value [1, 4]?
The value was 2.27 ± 0.12.

What about the “Magazine Head Entries” value [1, 4] of the same compound?
The value was 236.13.

What about the Omissions [1, 4] of the same compound?
The Omissions was 17.04.

What about the “Reward Latency” value [1, 4] of the same compound?
Its value is 2.77.

And the “Trials Completed” value [1, 4]?
Its value is 91.83 ± 4.15.

And the “Latency (Correct)” value [1, 5]?
Its value is 0.90 ± 0.03.

What about the “Latency (Incorrect)” value [1, 5] of the same compound?
The value was 2.03 ± 0.09.

And the “Magazine Head Entries” value [1, 5]?
Its value is 318.71 ± 34.88.

And the Omissions [1, 5]?
Its Omissions is 9.63 ± 1.15.

What about the “Reward Latency” value [1, 5] of the same compound?
Its value is 2.13.

And the “Trials Completed” value [1, 5]?
The value was 85.62 ± 4.17.

And the “Latency (Correct)” value [1, 6]?
The value was 0.97.

What about the “Latency (Incorrect)” value [1, 6] of the same compound?
The value was 2.26.

What about the “Magazine Head Entries” value [1, 6] of the same compound?
Its value is 268.17.

What about the Omissions [1, 6] of the same compound?
Its Omissions is 13.42.

And the “Reward Latency” value [1, 6]?
Its value is 3.21.

What about the “Trials Completed” value [1, 6] of the same compound?
The value was 87.50.

And the “Latency (Correct)” value [1, 7]?
The value was 0.81 ± 0.03.

And the “Latency (Incorrect)” value [1, 7]?
Its value is 1.82 ± 0.10.

And the “Magazine Head Entries” value [1, 7]?
Its value is 415.04 ± 70.50.

What about the Omissions [1, 7] of the same compound?
Its Omissions is 6.75 ± 1.44.

What about the “Reward Latency” value [1, 7] of the same compound?
The value was 2.06.

And the “Trials Completed” value [1, 7]?
Its value is 78.46 ± 4.47.

What about the “Inhibition at Highest Test Article Concentration” value ([2]; 2C8, Amodiaquine, at 50 μM) of the same compound?
Its value is 73.7 at 50 μM %.

And the pIC50 ([2]; microsomes)?
The pIC50 was 5.62.
